From patent EP1137645B1, “ALPHA-METHYLBENZYL-CONTAINING THIOUREA INHIBITORS OF HERPES VIRUSES CONTAINING A […] GROUP” (Wyeth, priority 1998, dated 2000)
In brackets after ≈: the same amount, converted by molar mass.

Legend:
[1] = tested on: HCMV recombinant mutant virus whose genome contains the prokaryotic beta-glucuronidase gene; test: microbe, parasite or virus in culture; format: cell-based, human cytomegalovirus; details: Human betaherpesvirus 5, Fibroblast, read-out: IC50 ug/ml HCMV, HCMV, human foreskin fibroblasts
Summary of the method: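 Human foreskin fibroblasts infected with HCMV recombinant carrying beta-glucuronidase under a viral promoter (e.g. RV145) in presence of compound. At 96 h post-infection, lysates assayed for beta-glucuronidase by colorimetric or fluorogenic substrate as replication readout; IC50 estimated from varying compound amounts.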

[2] = tested on: HSV- I; test: HSV antiviral (ELISA) assay; format: cell-based; details: HSV- I, Vero cells, ELISA; read-out: IC50 (ug/ml) HSV
Summary of the method: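 Vero cells in DMEM with 2% FBS treated with compound 30 min before HSV-1 infection (MOI 0.006), then incubated ~24 h at 37°C. Viral replication measured by ELISA against glycoprotein D with β-galactosidase-linked secondary and fluorogenic substrate (ex 365/em 450 nm); IC50 relative to untreated fluorescence.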

[3] = tested on: VZV strain Ellen; test: VZV antiviral (ELISA) assay; format: cell-based; details: Human alphaherpesvirus 3, HFF; for inhibition at 10 µg/mL: read-out: % inhibition 10 ug/ml VZV; for IC50: read-out: IC50 (ug/ml) VZV
Summary of the method: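 HFF cells infected with VZV Ellen at multiplicity below 0.1 overnight, then mixed infected/uninfected cells seeded with compound in DMEM/2% FBS and incubated three days at 37°C, 5% CO2.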

Compound	IC50 [1] [µg/mL]	IC50 [2] [µg/mL]	inhibition at 10 µg/mL [3] [%]	IC50 [3] [µg/mL]
COc1cc(OC)c(NC(=S)Nc2ccc(NC(=O)c3ccccc3F)c(Cl)c2)cc1Cl [Example 278, N-{2-Chloro-4-[3-(5-chloro-2,4-dimethoxy-phenyl)-thioureido]-phenyl}-2-fluoro-benzamide]	> 10	> 10	15	> 10
COc1cc(OC)c(NC(=S)Nc2ccc(NC(=O)c3ccccc3F)c(C(=O)c3ccccc3)c2)cc1Cl [Example 293, N-{2-Benzoyl-4-[3-(5-chloro-2,4-dimethoxy-phenyl)-thioureido]-phenyl}-2-fluoro-benzamide]	> 10	> 50	2	> 10
CN1CCC(N(C)c2ccc(NC(=S)Nc3ccc(NC(=O)c4ccccc4F)cc3)cc2Cl)C1 (centres unmarked) [Example 332, N-[4-(3-{3-Chloro-4-[methyl-(1-methyl-pyrrolidin-3-yl)-amino]-phenyl}-thioureido)-phenyl]-2-fluoro-benzamide]	0.9 (≈ 1.76 µM)	1 (≈ 1.95 µM)	90	8 (≈ 15.6 µM)
COc1cc(C)c(Cl)cc1NC(=S)Nc1ccc(NC(=O)c2c(F)cccc2F)cc1 [Example 333, N-{4-[3-(5-Chloro-2-methoxy-4-methyl-phenyl)-thioureido]-phenyl}-2,6-difluoro-benzamide]	2.5 (≈ 5.41 µM)	0.04 (≈ 0.0866 µM)	92	4.5 (≈ 9.74 µM)
CN1CCC(N(C)c2ccc(NC(=S)Nc3ccc(NC(=O)c4c(F)cccc4F)cc3)cc2Cl)CC1 [Example 340, N-[4-(3-{3-Chloro-4-[methyl-(1-methyl-piperidin-4-yl)-amino]-phenyl}-thioureido)-phenyl]-2,6-difluoro-benzamide]	0.25 (≈ 0.459 µM)	3 (≈ 5.51 µM)	99	4 (≈ 7.35 µM)
CSc1ccc(NC(=S)Nc2ccc(NC(=O)c3ccccc3C)cc2)cc1Cl [Example 342, N-{4-[3-(3-Chloro-4-methylsulfanyl-phenyl)-thioureido]-phenyl}-2-methyl-benzamide]	1.4 (≈ 3.17 µM)	0.2 (≈ 0.452 µM)	62	> 10
Cc1ccccc1C(=O)Nc1ccc(NC(=S)Nc2ccc(N(C)C)c(Cl)c2)cc1 [Example 346, N-{4-[3-(3-Chloro-4-dimethylamino-phenyl)-thioureido]-phenyl}-2-methyl-benzamide]	2 (≈ 4.56 µM)	6 (≈ 13.7 µM)	62	> 10
CN(C)c1ccc(NC(=S)Nc2ccc(NC(=O)c3c(F)cccc3F)cc2)cc1Cl [Example 348, N-{4-[3-(3-Chloro-4-dimethylamino-phenyl)-thioureido]-phenyl}-2,6-difluoro-benzamide]	0.8 (≈ 1.74 µM)	4 (≈ 8.68 µM)	95	8 (≈ 17.4 µM)
CN1CCC(N(C)c2ccc(NC(=S)Nc3ccc(NC(=O)c4c(F)cccc4F)cc3)cc2Cl)C1 (centres unmarked) [Example 349, N-[4-(3-{3-Chloro-4-[methyl-(1-methyl-pyrrolidin-3-yl)-amino]-phenyl}-thioureido)-phenyl]-2,6-difluoro-benzamide]	1.2 (≈ 2.26 µM)	5 (≈ 9.43 µM)	110	4 (≈ 7.55 µM)
COc1cc(OC)c(NC(=S)Nc2ccc(NC(=O)c3ccccc3F)cc2Cl)cc1Cl [Example 355, N-{3-Chloro-4-[3-(5-chloro-2,4-dimethoxy-phenyl)-thioureido]-phenyl}-2-fluoro-benzamide]	> 10	0.035 (≈ 0.0708 µM)	40	> 10
O=C(Nc1ccc(NC(=S)Nc2ccc(SC3CCCCC3)c(Cl)c2)cc1)c1ccccc1F [Example 357, N-{4-[3-(3-Chloro-4-cyclohexylsulfanyl-phenyl)-thioureido]-phenyl}-2-fluoro-benzamide]	9 (≈ 17.5 µM)	> 10	44	40 (≈ 77.8 µM)
CN(C)CC(=O)Nc1ccc(NC(=S)Nc2ccc(NC(=O)c3ccccc3F)cc2)cc1Cl [Example 362, N-(4-{3-[3-Chloro-4-(2-dimethylamino-acetylamino)-phenyl]-thioureido}-phenyl)-2-fluoro-benzamide]	> 10	> 10	8	> 10
O=C(CN1CCCCC1)Nc1ccc(NC(=S)Nc2ccc(NC(=O)c3ccccc3F)cc2)cc1Cl [Example 364, N-(4-{3-[3-Chloro-4-(2-piperidin-1-yl-acetylamino)-phenyl]-thioureido}-phenyl)-2-fluoro-benzamide]	> 10	> 10	73	> 15
O=C(CN1CCOCC1)Nc1ccc(NC(=S)Nc2ccc(NC(=O)c3ccccc3F)cc2)cc1Cl [Example 367, N-(4-{3-[3-Chloro-4-(2-morpholin-4-yl-acetylamino)-phenyl]-thioureido}-phenyl)-2-fluoro-benzamide]	> 10	> 10	20	> 10
CS(=O)(=O)Nc1ccc(NC(=S)Nc2ccc(NC(=O)c3ccccc3F)cc2)cc1Cl [Example 370, N-{4-[3-(3-Chloro-4-methanesulfonylamino-phenyl)-thioureido]-phenyl}-2-fluoro-benzamide]	> 10	> 10	16	> 10
CN(C)CCSCC(=O)Nc1ccc(NC(=S)Nc2ccc(NC(=O)c3ccccc3F)cc2)cc1Cl [Example 373, N-[4-(3-{3-Chloro-4-[2-(2-dimethylamino-ethylsulfanyl)-acetylamino]-phenyl}-thioureido)-phenyl]-2-fluoro-benzamide]	6 (≈ 10.7 µM)	9 (≈ 16.1 µM)	4	> 10
Cc1ccccc1C(=O)Nc1ccc(NC(=S)Nc2ccc(N(C)C3CCN(Cc4ccccc4)C3)c(Cl)c2)cc1 (centres unmarked) [Example 374, N-[4-(3-{4-[(1-Benzyl-pyrrolidin-3-yl)-methyl-amino]-3-chloro-phenyl}-thioureido)-phenyl]-2-methyl-benzamide]	3 (≈ 5.14 µM)	3 (≈ 5.14 µM)	70	4 (≈ 6.85 µM)
Cc1ccccc1C(=O)Nc1ccc(NC(=S)Nc2ccc(N(C)C3CCN(C)CC3)c(Cl)c2)cc1 [Example 375, N-[4-(3-{3-Chloro-4-[methyl-(1-methyl-piperidin-4-yl)-amino]-phenyl}-thioureido)-phenyl]-2-methyl-benzamide]	1.5 (≈ 2.87 µM)	5 (≈ 9.58 µM)	95	7 (≈ 13.4 µM)
O=C(Nc1ccc(NC(=S)Nc2ccc(Cl)c(C(F)(F)F)c2)cc1)c1c(F)cccc1F [Example 380, N-{4-[3-(4-Chloro-3-trifluoromethyl-phenyl)-thioureido]-phenyl}-2,6-difluoro-benzamide]	> 10	> 10	50	> 10
CCSc1ccc(NC(=S)Nc2ccc(NC(=O)c3ccccc3F)cc2)cc1Cl [Example 386, N-{4-[3-(3-Chloro-4-ethylsulfanyl-phenyl)-thioureido]-phenyl}-2-fluoro-benzamide]	2 (≈ 4.35 µM)	> 10	29	> 10
